Reference: patent publication US20100298245A1, “Pharmaceutical Composition for the Treatment of IL-8 mediated diseases” (Revotar Biopharmaceuticals AG, priority 2007, published 2010)

System: Interleukin 8 (IL-8)
Assay: Human clinical trial in COPD patients: IL-8 level in induced sputum supernatant (enzyme immunoassay)
Type: in vivo
Experimental: A human clinical trial (trial) was conducted to investigate effects of the disodium salt of compound of formula (I) (1,6-Bis [3-(3-carboxymethylphenyl)-4-(2-α-D-mannopyranosyloxy)-phenyl] hexan) on patients with chronic obstructive pulmonary disease (COPD). The trial was carried out according to known methods and according to the “good clinical practices” (GCP), applicable regulatory requirements, and was based on written approval of the Independent Ethics Committee (IEC). Patients were enrolled in the trial based on inclusion and exclusion criteria known.
Patients were treated by inhalation of the disodium salt of the compound of formula (I) for 10 days. The unit dose strength for nebulization was 70 mg in 4 ml of 0.9% NaCl twice a day (bid). To investigate laboratory parameters the procedure of induced sputum (IS) was used to harvest cells and sputum supernatant for further analysis.
To investigate levels of Interleukin 8 (IL-8) in the sputum supernatant, sputum was frozen after collection. Once, all samples were collected, levels of IL-8 were analyzed by using a commercial available enzyme immunoassay for the in vitro quantification of human IL-8 in biological fluids. IL-8 sample concentrations were determined employing calibration curves.

O=C(O)Cc1cccc(-c2cc(CCCCCCc3ccc(O[C@H]4O[C@H](CO)[C@@H](O)[C@H](O)[C@@H]4O)c(-c4cccc(CC(=O)O)c4)c3)ccc2O[C@H]2O[C@H](CO)[C@@H](O)[C@H](O)[C@@H]2O)c1 [compound of formula (I), 1,6-Bis [3-(3-carboxymethylphenyl)-4-(2-α-D-mannopyranosyloxy)-phenyl] hexane]
median value of levels of IL8 in sputum supernatant after treatment (COPD patients, induced sputum supernatant, after inhalation of disodium salt 70 mg in 4 ml 0.9% NaCl bid for 10 days, Mann-Whitney Rank Sum Test p=0.031 vs before): 4985 pg/mL
median value of levels of IL8 in sputum supernatant before treatment (COPD patients, induced sputum supernatant, baseline before inhalation treatment): 15419 pg/mL
change of the IL-8 medians (after vs before treatment, inhalation 70 mg bid for 10 days, statistically significant (p=0.031) and clinically relevant): −68%
